Experimental data: patent publication US20190315711A1 (eXIthera Pharmaceuticals, Inc., priority 2016, published 2019)
≈ marks a conversion by molar mass, not a printed value.

Experiments:
[1] = Aqueous solubility in PBS pH 7.4; assay type: physicochemical; settings: phosphate buffered saline, aqueous buffer, kinetic from dmso stock, PBS pH 7.4, room temperature
Description: The following procedure was used to determine the aqueous solubility of a test compound in phosphate buffered saline (PBS—NaCl 137 mM, KCl 2.7 mM, Na2HPO4 8.1 mM, KH2PO4 1.5 mM, pH 7.4) in 96-well plate format by HPLC-UV/VIS analysis. The test compound was prepared at 200 μM in PBS from a 10 mM DMSO stock solution. The final DMSO concentration was 2%. The PBS buffer samples were mixed thoroughly followed by incubation at room temperature for 24 h. At the end of the incubation, the PBS buffer samples were centrifuged and supernatants analyzed by HPLC. The aqueous solubility (μM) of the test compound in PBS was determined by comparing the peak area of the principal peak in the calibration standard (200 μM) with the peak area of the corresponding peak in each of the PBS samples. The range of the assay was approximately 0.5 μM to 200 μM. The reference compounds used in each assay were metoprolol, rifampicin, ketoconazole, phenytoin, haloperidol, simvastatin, diethylstilbestrol, and tamoxifen ranking from fully soluble (200 μM) to poorly soluble (<1 μM).

[2] = Plasma protein binding by equilibrium dialysis; assay type: in vitro ADME; settings: both sexes, pooled plasma, pH 7.4, human plasma protein binding, read-out: PPB
Description: The following procedure was used to determine the plasma protein binding of a test compound in pooled plasma from human (mixed gender) via equilibrium dialysis in a 96-well plate format. The dialysate compartment was loaded with phosphate-buffered saline (pH 7.4) and the sample side was loaded with plasma spiked with the test compound at a concentration of 10 μM. After loading, samples were covered and incubated for 4 hours at 37° C. After incubation, each compartment was sampled, diluted with acetonitrile/buffer and centrifuged. The supernatants were analyzed by HPLC-MS/MS. The analyte peak areas obtained from HPLC-MS/MS analysis of each sample were used to calculate protein binding according to the following equation (Equation 4):
where: AREAp=Peak area of analyte in protein matrix; AREAb=Peak area of analyte in buffer. The amount measured in the plasma compartment included both free and bound drug, while that on the buffer side represented free drug only; the differences were used to calculate the percentage plasma protein bound. Three reference compounds were tested in each assay: acebutolol, quinidine and warfarin.

[3] = Determination of bioavailability in a dog; assay type: in vivo; settings: plasma, male beagle dogs, IV 1 mg/kg vs oral gavage 5 mg/kg
Description: The following protocol was used to estimate the bioavailability of test compounds in a dog. Test compounds were formulated in vehicles compatible with intravenous and oral dosing. Test compounds were administered to male beagle dogs via an intravenous bolus at 1 mg/kg (1 mg/mL at a dose volume of 1 mL/kg) or via oral gavage at 5 mg/kg (1 mg/mL at a dose volume of 5 mL/kg). Blood samples were collected via the contralateral (to intravenous bolus) jugular vein or via other accessible vein, at various timepoints following administration out to 24 hours post dose. Plasma samples (EDTA) were obtained by centrifugation (2200×g for 10 minutes at 5° C.) and stored frozen ([…]) until analyzed for parent compound via LC/MS/MS. Pharmacokinetic parameters were estimated from the plasma concentration time data by standard non-compartmental methods utilizing standard analysis software. By comparing the area under the curve (AUC) for IV and PO administration estimates of oral bioavailability were determined.

[4] = Metabolic stability in dog hepatocytes; assay type: in vitro ADME; settings: pooled cryopreserved hepatocytes; beagle dog hepatocytes, 2 μM compound, 500,000 cells/mL, 37° C.; read-out: Dog Hepatocyte Stability (T½: min)
Description: The following procedure was used to determine the stability of test compounds in beagle dog hepatocytes in a 96-well plate format. The test compounds, including the controls, imipramine and 7-ethoxycoumarin, were dissolved at 10 mM in DMSO, followed by further 5-fold dilution with DMSO to 2 mM. Pooled cryopreserved beagle dog hepatocytes were thawed and transferred into complete medium. Cells were gently centrifuged (700 rpm for 5 min) and the pellet rinsed with KHB (Krebs Henseleit buffer). Cells were resuspended, counted using Trypan blue, and adjusted to 1 million cells/mL in KHB buffer. The 2 mM compound stock solutions were diluted 10-fold with acetonitrile, followed by a further 50-fold dilution with KHB buffer. 200 μL of these compound solutions were transferred to 96-well polypropylene assay plates and an equal volume of the hepatocyte solution was added and mixed to initiate the reaction (final assay concentrations were 2 μM compound and 500,000 cells/mL). Assay plates were incubated at 37° C. in 5% CO2 with gentle agitation. 50 μL aliquots were removed at multiple time points out to 180 minutes and quenched with 6 volumes of cold acetonitrile (containing 250 ng/mL of carbutamide and chrysin as internal standards) to terminate the reaction and precipitate protein. Quenched samples were maintained on ice. The quenched samples were centrifuged at 2000×g (3100 rpm) for 10 minutes at 4° C. 50 μL aliquots of the supernatants were removed and diluted with 100 μL Milli-Q water to reduce the % organic content prior to bioanalysis by LC-MS/MS. Peak areas corresponding to the test compound were recorded. The compound remaining was calculated by comparing the peak area at each time point to time zero. Data were analyzed and results were calculated using Microsoft Excel 2010.

SMILES | solubility at 24 h [1] [µM] | fraction unbound at 4 h, 10 μM [2] | bioavailability [3] [%] | half-life at 2 μM [4] [h]
Cc1ccccc1N(C)C(=O)[C@@H]1[C@@H](Cc2ccnc(N)c2)C(=O)N1C(=O)N[C@@H](C1CCCCC1)C(F)(F)F [Compound 15] | 10 to 100 (≈ 5.32 to 53.2 µg/mL) | < 0.05 |  | 
CN(C(=O)[C@@H]1[C@@H](Cc2ccnc(N)c2)C(=O)N1C(=O)N[C@@H](C1CCCCC1)C(F)(F)F)c1cccnc1 [Compound 17] | > 100 | 0.1 to 0.5 |  | 
CN(C(=O)[C@@H]1[C@@H](Cc2ccnc(N)c2)C(=O)N1C(=O)N[C@@H](C1CCCCC1)C(F)(F)F)c1ccncc1 [Compound 18] | > 100 | 0.1 to 0.5 |  | 
CN(C(=O)[C@@H]1[C@@H](Cc2ccnc(N)c2)C(=O)N1C(=O)N[C@@H](C1CCCCC1)C(F)(F)F)c1cncnc1 [Compound 19] | > 100 | 0.05 to 0.09 |  | 
CN(C(=O)[C@@H]1[C@@H](Cc2ccnc(N)c2)C(=O)N1C(=O)N[C@@H](C1CCCCC1)C(F)(F)F)c1ncccn1 [Compound 21] | > 100 | < 0.05 | ≤ 10 | < 1
CN(C(=O)[C@@H]1[C@@H](Cc2ccnc(N)c2)C(=O)N1C(=O)N[C@@H](C1CCCCC1)C(F)(F)F)c1cccc(F)c1 [Compound 22] | 10 to 100 (≈ 5.36 to 53.6 µg/mL) | < 0.05 |  | 
CCN(C(=O)[C@@H]1[C@@H](Cc2ccnc(N)c2)C(=O)N1C(=O)N[C@@H](C1CCCCC1)C(F)(F)F)c1ccccc1 [Compound 24] | 10 to 100 (≈ 5.32 to 53.2 µg/mL) | < 0.05 |  | 
CC[C@@H](NC(=O)N1C(=O)[C@H](Cc2ccnc(N)c2)[C@H]1C(=O)N(C)c1ccncc1)C1CCCCC1 [Compound 25] | > 100 | 0.1 to 0.5 | 11 to 30 | 2.02 to 4
CC[C@@H](NC(=O)N1C(=O)[C@H](Cc2ccnc(N)c2)[C@H]1C(=O)N(C)c1ccccc1)C1CCCCC1 [Compound 27] | > 100 | 0.05 to 0.09 | > 30 | 2.02 to 4
CN(C(=O)[C@@H]1[C@@H](Cc2ccnc(N)c2)C(=O)N1C(=O)N[C@@H](C1CCCCC1)C1CC1)c1ccccc1 [Compound 36] | > 100 | < 0.05 | 11 to 30 | < 1
CC[C@@H](NC(=O)N1C(=O)[C@H](Cc2ccnc(N)c2)[C@H]1C(=O)N(CC)c1ncccn1)C1CCCCC1 [Compound 39] |  |  | ≤ 10 | < 1
CC[C@@H](NC(=O)N1C(=O)[C@H](Cc2ccnc(N)c2)[C@H]1C(=O)N(C)c1ccccc1)c1cccnc1 [Compound 44] | > 100 | 0.1 to 0.5 |  | 2.02 to 4
CC[C@@H](NC(=O)N1C(=O)[C@H](Cc2ccnc(N)c2)[C@H]1C(=O)N(C)c1ccccc1)C1CC1 [Compound 46] | > 100 | 0.1 to 0.5 |  | 
C[C@@H](NC(=O)N1C(=O)[C@H](Cc2ccnc(N)c2)[C@H]1C(=O)N(C)c1ccccc1)C1CCCCC1 [Compound 49] | > 100 | 0.05 to 0.09 |  | < 1
CCC[C@@H](NC(=O)N1C(=O)[C@H](Cc2ccnc(N)c2)[C@H]1C(=O)N(C)c1ccccc1)C1CCCCC1 [Compound 50] | > 100 | < 0.05 |  | 1.02 to 2
CN(C(=O)[C@@H]1[C@@H](Cc2ccnc(N)c2)C(=O)N1C(=O)N[C@@H](C1CC1)C(F)(F)F)c1ccncc1 [Compound 77] | > 100 | < 0.5 |  | 2.02 to 4
CN(C(=O)[C@@H]1[C@@H](Cc2ccnc(N)c2)C(=O)N1C(=O)N[C@@H](C1CC1)C(F)(F)F)c1ncccn1 [Compound 78] | > 100 | 0.1 to 0.5 |  | < 1
CC[C@@H](NC(=O)N1C(=O)[C@H](Cc2ccnc(N)c2)[C@H]1C(=O)N(C)c1ncncn1)C1CCCCC1 [Compound 81] | > 100 | < 0.05 |  | < 1
CN(C(=O)[C@@H]1[C@@H](Cc2ccnc(N)c2)C(=O)N1C(=O)NC(c1ccccc1)c1ccccc1)c1ccncc1 [Compound 82] | > 100 | 0.05 to 0.09 |  | 2.02 to 4
CC[C@@H](NC(=O)N1C(=O)[C@H](Cc2ccnc(N)c2)[C@H]1C(=O)N(C)c1ncncn1)c1ccccc1 [Compound 83] | > 100 | 0.1 to 0.5 |  | < 1
CCC[C@@H](NC(=O)N1C(=O)[C@H](Cc2ccnc(N)c2)[C@H]1C(=O)N(C)c1ccncc1)c1ccccc1 [Compound 86] | > 100 | < 0.05 |  | > 4
CC[C@@H](NC(=O)N1C(=O)[C@H](Cc2ccnc(N)c2)[C@H]1C(=O)N(C)c1ccncc1)c1ccc(Cl)cc1 [Compound 89] | > 100 | 0.05 to 0.09 |  | > 4
CC[C@@H](NC(=O)N1C(=O)[C@H](Cc2ccnc(N)c2)[C@H]1C(=O)N(C)c1ccncc1)c1ccccc1Cl [Compound 95] | > 100 | 0.05 to 0.09 |  | 2.02 to 4
CC[C@H](NC(=O)N1C(=O)[C@H](Cc2ccnc(N)c2)[C@H]1C(=O)N(C)c1ccncc1)c1ccccc1C [Compound 97] | > 100 | 0.1 to 0.5 |  | 2.02 to 4
CC[C@@H](NC(=O)N1C(=O)[C@H](Cc2ccnc(N)c2)[C@H]1C(=O)N(C)c1ccncc1)c1cccc(C#N)c1 [Compound 99] | > 100 | 0.1 to 0.5 |  | > 4
CC[C@@H](NC(=O)N1C(=O)[C@H](Cc2ccnc(N)c2)[C@H]1C(=O)N(C)c1ccncc1)c1cccc(OC)c1 [Compound 100] | > 100 | 0.1 to 0.5 |  | > 4
CC[C@@H](NC(=O)N1C(=O)[C@H](Cc2cc(C)nc(N)c2)[C@H]1C(=O)N(C)c1ccccc1)c1cccc(Cl)c1 [Compound 120] | 10 to 100 (≈ 5.2 to 52 µg/mL) | < 0.05 |  | 2.02 to 4
CC[C@@H](NC(=O)N1C(=O)[C@H](Cc2ccnc(N)c2)[C@H]1C(=O)N(C)c1ncccn1)c1cccc(Cl)c1 [Compound 121] | > 100 | 0.05 to 0.09 |  | < 1
CC[C@@H](NC(=O)N1C(=O)[C@H](Cc2ccnc(NC(=O)OC(C)(C)C)c2)[C@H]1C(=O)N(C)c1ccncc1)c1cccc(Cl)c1 [Compound 127] | 10 to 100 (≈ 6.07 to 60.7 µg/mL) | < 0.05 |  | < 1
